Test results as given in the supplement of paper PMC10307832.

How the values were obtained:
Test in all cases: relative viability (nuclei count vs DMSO), 5 days (fraction); higher = more cells survive
IA-LM = system: IA-LM
In short: (§1)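 Lung cancer cell lines in 1536-well plates got either a single drug or a fixed anchor-drug dose together with five library-drug doses (not always all listed) in √10 steps, by pin tool, on the day after seeding. Nuclei were counted after 5 days, and relative viability is the treated-to-vehicle ratio of nuclei counts. Values are medians of duplicate plates.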

NCI-H1975 = system: NCI-H1975
In short: as §1

HOP-62 = system: HOP-62
In short: as §1

SK-MES-1 = system: SK-MES-1
In short: as §1

NCI-H520 = system: NCI-H520
In short: as §1

NCI-H2009 = system: NCI-H2009
In short: as §1

COR-L 105 = system: COR-L 105
In short: as §1

NCI-H1650 = system: NCI-H1650
In short: as §1

COR-L23 = system: COR-L23
In short: as §1

EPLC-272H = system: EPLC-272H
In short: as §1

LK-2 = system: LK-2
In short: as §1

NCI-H2347 = system: NCI-H2347
In short: as §1

A549 = system: A549
In short: as §1

HCC-44 = system: HCC-44
In short: as §1

NCI-H647 = system: NCI-H647
In short: as §1

NCI-H1299 = system: NCI-H1299
In short: as §1

HCC-78 = system: HCC-78
In short: as §1

NCI-H460 = system: NCI-H460
In short: as §1

A-427 = system: A-427
In short: as §1

NCI-H1792 = system: NCI-H1792
In short: as §1

EKVX = system: EKVX
In short: as §1

HCC-366 = system: HCC-366
In short: as §1

NCI-H1437 = system: NCI-H1437
In short: as §1

## Nc1cccc2c1CN(C1CCC(=O)NC1=O)C2=O (stereo not given) [Lenalidomide] + CC1(C)CCC(c2ccc(Cl)cc2)=C(CN2CCN(c3ccc(C(=O)NS(=O)(=O)c4ccc(N[C@H](CCN5CCOCC5)CSc5ccccc5)c(S(=O)(=O)C(F)(F)F)c4)cc3)CC2)C1 [Navitoclax] (partner 0.5 µM)
IA-LM; first compound 0.253 µM
  relative viability: 0.895
IA-LM; first compound 0.8 µM
  relative viability: 0.715
IA-LM; first compound 2.53 µM
  relative viability: 0.829
IA-LM; first compound 8 µM
  relative viability: 0.786
NCI-H1975; first compound 0.253 µM
  relative viability: 1.13
NCI-H1975; first compound 0.8 µM
  relative viability: 1.07
NCI-H1975; first compound 2.53 µM
  relative viability: 1.25
NCI-H1975; first compound 8 µM
  relative viability: 1.19
HOP-62; first compound 0.253 µM
  relative viability: 1.07
HOP-62; first compound 0.8 µM
  relative viability: 0.985
HOP-62; first compound 2.53 µM
  relative viability: 0.944
HOP-62; first compound 8 µM
  relative viability: 1.04
SK-MES-1; first compound 0.253 µM
  relative viability: 1.12
SK-MES-1; first compound 0.8 µM
  relative viability: 1.15
SK-MES-1; first compound 2.53 µM
  relative viability: 1.3
SK-MES-1; first compound 8 µM
  relative viability: 1.17
NCI-H520; first compound 0.253 µM
  relative viability: 0.958
NCI-H520; first compound 0.8 µM
  relative viability: 1.05
NCI-H520; first compound 2.53 µM
  relative viability: 1.22
NCI-H520; first compound 8 µM
  relative viability: 0.892
NCI-H2009; first compound 0.253 µM
  relative viability: 1.21
NCI-H2009; first compound 0.8 µM
  relative viability: 1.26
NCI-H2009; first compound 2.53 µM
  relative viability: 1.21
NCI-H2009; first compound 8 µM
  relative viability: 1.28
COR-L 105; first compound 0.253 µM
  relative viability: 0.45
COR-L 105; first compound 0.8 µM
  relative viability: 0.81
COR-L 105; first compound 2.53 µM
  relative viability: 0.717
COR-L 105; first compound 8 µM
  relative viability: 0.883
NCI-H1650; first compound 0.253 µM
  relative viability: 1.06
NCI-H1650; first compound 0.8 µM
  relative viability: 1.22
NCI-H1650; first compound 2.53 µM
  relative viability: 1.4
NCI-H1650; first compound 8 µM
  relative viability: 1.24
COR-L23; first compound 0.253 µM
  relative viability: 0.986
COR-L23; first compound 0.8 µM
  relative viability: 1.01
COR-L23; first compound 2.53 µM
  relative viability: 0.997
COR-L23; first compound 8 µM
  relative viability: 1.06
EPLC-272H; first compound 0.253 µM
  relative viability: 1.24
EPLC-272H; first compound 2.53 µM
  relative viability: 0.917
EPLC-272H; first compound 8 µM
  relative viability: 0.741
LK-2; first compound 0.253 µM
  relative viability: 0.817
LK-2; first compound 0.8 µM
  relative viability: 0.85
LK-2; first compound 2.53 µM
  relative viability: 0.959
LK-2; first compound 8 µM
  relative viability: 0.709
NCI-H2347; first compound 0.253 µM
  relative viability: 0.788
NCI-H2347; first compound 0.8 µM
  relative viability: 0.747
NCI-H2347; first compound 2.53 µM
  relative viability: 0.842
NCI-H2347; first compound 8 µM
  relative viability: 0.721
A549; first compound 0.253 µM
  relative viability: 1.21
A549; first compound 0.8 µM
  relative viability: 1.17
A549; first compound 2.53 µM
  relative viability: 1.21
A549; first compound 8 µM
  relative viability: 1.24
HCC-44; first compound 0.253 µM
  relative viability: 0.966
HCC-44; first compound 0.8 µM
  relative viability: 0.75
HCC-44; first compound 2.53 µM
  relative viability: 1.1
HCC-44; first compound 8 µM
  relative viability: 0.917
NCI-H647; first compound 0.253 µM
  relative viability: 1.08
NCI-H647; first compound 0.8 µM
  relative viability: 1.11
NCI-H647; first compound 2.53 µM
  relative viability: 1.4
NCI-H647; first compound 8 µM
  relative viability: 1.04
NCI-H1299; first compound 0.253 µM
  relative viability: 1.05
NCI-H1299; first compound 0.8 µM
  relative viability: 1.04
NCI-H1299; first compound 2.53 µM
  relative viability: 1.07
NCI-H1299; first compound 8 µM
  relative viability: 1.05
HCC-78; first compound 0.253 µM
  relative viability: 0.834
HCC-78; first compound 0.8 µM
  relative viability: 0.72
HCC-78; first compound 2.53 µM
  relative viability: 0.842
HCC-78; first compound 8 µM
  relative viability: 0.654
NCI-H460; first compound 0.253 µM
  relative viability: 0.811
NCI-H460; first compound 0.8 µM
  relative viability: 1.28
NCI-H460; first compound 2.53 µM
  relative viability: 1.15
NCI-H460; first compound 8 µM
  relative viability: 1.13
A-427; first compound 0.253 µM
  relative viability: 0.99
A-427; first compound 2.53 µM
  relative viability: 0.911
A-427; first compound 8 µM
  relative viability: 0.832
NCI-H1792; first compound 0.253 µM
  relative viability: 0.74
NCI-H1792; first compound 0.8 µM
  relative viability: 0.582
NCI-H1792; first compound 2.53 µM
  relative viability: 0.848
NCI-H1792; first compound 8 µM
  relative viability: 0.364
EKVX; first compound 0.253 µM
  relative viability: 0.882
EKVX; first compound 0.8 µM
  relative viability: 0.855
EKVX; first compound 2.53 µM
  relative viability: 1.13
EKVX; first compound 8 µM
  relative viability: 0.843
HCC-366; first compound 0.253 µM
  relative viability: 1.02
HCC-366; first compound 0.8 µM
  relative viability: 1.19
HCC-366; first compound 2.53 µM
  relative viability: 1.13
HCC-366; first compound 8 µM
  relative viability: 1.08
NCI-H1437; first compound 0.253 µM
  relative viability: 1.08
NCI-H1437; first compound 0.8 µM
  relative viability: 1.09
NCI-H1437; first compound 2.53 µM
  relative viability: 1.14
NCI-H1437; first compound 8 µM
  relative viability: 1.14
